Experimental data reported in patent US10344019B2 (priority 2010, dated 2019).
pEC50: −log10 of the molar value. Like-named read-outs stand apart in the source and are kept apart here.

How the values were obtained:
Assay type in all cases: cell-based
[1] = tested on: HCV 1b RLuc cells (dicistronic genotype 1b Con1 replicon, RLuc reporter); assay: microbe, parasite or virus in culture; conditions: Hepatitis C virus, read-out: 1b (nM)
Summary of the method: (§1)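 Replicons used: genotype 1b Con1, 1a H77, 2a JFH-1, and a 2a JFH-1 chimera with J6-strain NS5A (M31 present), all dicistronic.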

[2] = tested on: HCV 1a RLuc cells (dicistronic genotype 1a H77 replicon, RLuc reporter); assay: microbe, parasite or virus in culture; conditions: Hepatitis C virus, read-out: 1a
Summary of the method: as §1

[3] = tested on: HCV 2b Rluc cells (NS5A chimeric genotype 2a JFH-1 replicon with genotype 2b MD2b-1 NS5A gene, M31 present); assay: microbe, parasite or virus in culture; conditions: Hepatitis C virus, read-out: 2b
Summary of the method: (§2)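 Replicon cells stably carrying the listed RLuc-encoding dicistronic replicons were seeded and treated with DMSO serial dilutions of compound (10 mM stocks) diluted into culture medium. After 72 h, cells were lysed and Renilla luciferase activity measured. EC50 was derived by non-linear regression.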

[4] = tested on: HCV 2a JFH-1 Rluc cells (dicistronic genotype 2a JFH-1 replicon, RLuc reporter); assay: microbe, parasite or virus in culture; conditions: Hepatitis C virus, read-out: 2a JFH
Summary of the method: as §1

[5] = tested on: HCV 3a RLuc cells (NS5A chimeric genotype 1b Con1 replicon with consensus genotype 3a NS5A gene); assay: microbe, parasite or virus in culture
Summary of the method: as §2

[6] = tested on: HCV 4a Rluc cells (NS5A chimeric genotype 1b Con1 replicon with genotype 4a NS5A gene); assay: microbe, parasite or virus in culture; conditions: Hepatitis C virus, read-out: 4a
Summary of the method: as §2

[7] = tested on: HCV 2a Rluc cells (NS5A chimeric genotype 2a JFH-1 replicon with genotype 2a J6 strain NS5A gene, M31 present); assay: HCV replicon reporter assay, genotype 2a J6 (M31 present); conditions: Hepatitis C virus, read-out: 2a J6
Summary of the method: as §1

[8] = genotype 2a JFH-1 RLuc replicon
[9] = Hepatitis C virus, read-out: 3a, genotype 3a NS5A chimeric replicon
[10] = Hepatitis C virus, read-out: 3a, genotype 3a replicon

Q: What does the source list for COC(=O)N[C@H](C(=O)N1CCC[C@H]1c1ncc(-c2ccc3cc(-c4ccc5c(c4)CCc4nc([C@@H]6CCCN6C(=O)[C@@H](NC(=O)OC)C6CCOCC6)[nH]c4-5)ccc3c2)[nH]1)C(C)C [Example 198]?
A: EC50 [1]: 0.018 nM; pEC50 ([2]; genotype 1a H77 replicon, RLuc reporter): 9.00 to 12.00; pEC50 [3]: < 7.36; pEC50 ([4]; genotype 2a JFH-1 replicon, RLuc reporter): 9.00 to 12.00; pEC50 ([5]; read-out: 3a, genotype 3a NS5A chimeric 1b Con1 replicon): 8.30 to 9.00; pEC50 [6]: 9.00 to 12.00; pEC50 [7]: < 7.36

Q: With COC(=O)N[C@H](C(=O)N1C[C@@H](C)C[C@H]1c1ncc(-c2cc3c4c(c2)OCc2cc(-c5cnc([C@@H]6C[C@H](C)CN6C(=O)[C@H](NC(=O)OC)c6ccccc6)[nH]5)cc(c2-4)OC3)[nH]1)C(C)C [Example 564] as the compound, how does the EC50 [1] read?
A: Its EC50 is 0.012 nM.

Q: And the pEC50 ([2]; genotype 1a H77 RLuc replicon)?
A: The pEC50 was 9.00 to 12.00.

Q: And the pEC50 [3]?
A: Its pEC50 is 9.00 to 12.00.

Q: What about the pEC50 [4, 8] of the same compound?
A: The pEC50 was 9.00 to 12.00.

Q: What about the pEC50 [5, 9] of the same compound?
A: Its pEC50 is 9.00 to 12.00.

Q: What about the pEC50 [6] of the same compound?
A: Its pEC50 is 9.00 to 12.00.

Q: What about the pEC50 [7] of the same compound?
A: Its pEC50 is 7.36 to 9.00.

Q: With CC[C@H](NC(=O)OC)C(=O)N1CCC[C@H]1c1ncc(-c2ccc3c4c(ccc3c2)-c2ccc(-c3cnc([C@@H]5CCCN5C(=O)[C@H](NC(=O)OC)c5ccccc5)[nH]3)cc2CO4)[nH]1 [Example 12] as the compound, how does the EC50 ([1]; 72 h) read?
A: The EC50 was 0.008 nM.

Q: And the pEC50 ([2]; 72 h, Table 1, genotype 1a H77 replicon, 72 hours)?
A: The pEC50 was 9.00 to 12.00.

Q: And the pEC50 [3]?
A: Its pEC50 is under 7.36.

Q: And the pEC50 ([4]; 72 h, Table 1, genotype 2a JFH-1 replicon, 72 hours)?
A: The pEC50 was 9.00 to 12.00.

Q: What about the pEC50 ([5]; Hepatitis C virus, read-out: 3a, Table 1, genotype 3a NS5A chimeric replicon) of the same compound?
A: The pEC50 was 9.00 to 12.00.

Q: What about the pEC50 [6] of the same compound?
A: The pEC50 was 9.00 to 12.00.

Q: What about the pEC50 [7] of the same compound?
A: Its pEC50 is under 7.36.

Q: With O=C(N[C@@H](C(=O)N1CCC[C@H]1c1ncc(-c2cc3c4c(c2)OCc2cc(-c5cnc([C@@H]6CCCN6C(=O)[C@H](NC(=O)c6ccccn6)c6ccccc6)[nH]5)cc(c2-4)OC3)[nH]1)c1ccccc1)c1ccccn1 [Example 482] as the compound, how does the EC50 [1] read?
A: The EC50 was 0.034 nM.

Q: What about the pEC50 ([2]; genotype 1a replicon) of the same compound?
A: Its pEC50 is 9.00 to 12.00.

Q: What about the pEC50 [3] of the same compound?
A: Its pEC50 is 9.00 to 12.00.

Q: And the pEC50 ([4]; genotype 2a JFH-1 replicon)?
A: Its pEC50 is 9.00 to 12.00.

Q: What about the pEC50 [5, 10] of the same compound?
A: Its pEC50 is 9.00 to 12.00.

Q: What about the pEC50 [6] of the same compound?
A: Its pEC50 is 9.00 to 12.00.

Q: What about the pEC50 [7] of the same compound?
A: The pEC50 was 9.00 to 12.00.

Q: With COC[C@H]1C[C@@H](c2nc3ccc4cc(-c5ccc6c(ccc7nc([C@@H]8C[C@H]9C[C@H]9N8C(=O)[C@@H](NC(=O)OC)C(C)C)[nH]c76)c5)ccc4c3[nH]2)N(C(=O)[C@H](NC(=O)OC(C)(C)C)c2ccccc2)C1 [Example 497] as the compound, how does the EC50 [1] read?
A: The EC50 was 0.008 nM.

Q: And the pEC50 ([2]; genotype 1a H77 RLuc replicon)?
A: Its pEC50 is 9.00 to 12.00.

Q: What about the pEC50 [3] of the same compound?
A: The pEC50 was 9.00 to 12.00.

Q: And the pEC50 [4, 8]?
A: The pEC50 was 9.00 to 12.00.

Q: And the pEC50 [5, 9]?
A: The pEC50 was 9.00 to 12.00.

Q: And the pEC50 [6]?
A: The pEC50 was 9.00 to 12.00.

Q: What about the pEC50 [7] of the same compound?
A: The pEC50 was 9.00 to 12.00.

Q: COC(=O)N[C@H](C(=O)N1CCC[C@H]1c1nc2ccc3cc(-c4ccc(-c5cnc([C@@H]6CCCN6C(=O)[C@H](NC(=O)OC)c6ccccc6)[nH]5)cc4C#Cc4ccccc4)ccc3c2[nH]1)C(C)C [Example 439] was tested. Which EC50 [1] did it give?
A: Its EC50 is 0.004 nM.

Q: And the pEC50 ([2]; genotype 1a replicon)?
A: The pEC50 was 9.00 to 12.00.

Q: What about the pEC50 [3] of the same compound?
A: Its pEC50 is under 7.36.

Q: What about the pEC50 ([4]; genotype 2a JFH-1 replicon) of the same compound?
A: The pEC50 was 9.00 to 12.00.

Q: And the pEC50 [5, 10]?
A: Its pEC50 is 9.00 to 12.00.

Q: And the pEC50 [6]?
A: The pEC50 was 9.00 to 12.00.

Q: And the pEC50 [7]?
A: Its pEC50 is 7.36 to 9.00.

Q: Which results are given for COC[C@H]1C[C@@H](c2nc3ccc4cc(-c5ccc(-c6cnc([C@@H]7CCCN7C(=O)[C@H](NC(=O)OC)c7ccccc7)[nH]6)cc5)ccc4c3[nH]2)N(C(=O)[C@@H](NC(=O)OC)C(C)C)C1 [Example 415]?
A: EC50 [1]: 0.034 nM; pEC50 ([2]; genotype 1a replicon): 9.00 to 12.00; pEC50 [3]: 9.00 to 12.00; pEC50 ([4]; genotype 2a JFH-1 replicon): 9.00 to 12.00; pEC50 [5, 10]: 9.00 to 12.00; pEC50 [6]: 9.00 to 12.00; pEC50 [7]: 9.00 to 12.00

Q: Which EC50 ([1]; 72 h) does the source give for COC(=O)N[C@H](C(=O)N1CCC[C@H]1c1nc2ccc3cc(-c4ccc5c(ccc6nc([C@@H]7[C@H]8CC[C@H](C8)N7C(=O)[C@@H](NC(=O)OC)C7CCOCC7)[nH]c65)c4)ccc3c2[nH]1)C(C)C [Example 95] here?
A: Its EC50 is 0.028 nM.

Q: And the pEC50 ([2]; 72 h, Table 2, genotype 1a H77 replicon, 72 hours)?
A: The pEC50 was 9.00 to 12.00.

Q: And the pEC50 [3]?
A: Its pEC50 is 7.36 to 9.00.

Q: What about the pEC50 ([4]; 72 h, Table 2, genotype 2a JFH-1 replicon, 72 hours) of the same compound?
A: The pEC50 was 9.00 to 12.00.

Q: What about the pEC50 ([5]; Hepatitis C virus, read-out: 3a, Table 2, genotype 3a NS5A chimeric replicon) of the same compound?
A: The pEC50 was 9.00 to 12.00.

Q: What about the pEC50 [6] of the same compound?
A: Its pEC50 is 9.00 to 12.00.

Q: What about the pEC50 [7] of the same compound?
A: The pEC50 was 9.00 to 12.00.

Q: With COC(=O)N[C@H](C(=O)N1CCC[C@H]1c1ncc(-c2ccc3c(c2)COc2cc4c(cc2-3)CCc2nc([C@@H]3CCCN3C(=O)[C@H](NC(=O)C3CC3)c3ccccc3)[nH]c2-4)[nH]1)C(C)C [Example 503] as the compound, how does the EC50 [1] read?
A: Its EC50 is 0.041 nM.

Q: What about the pEC50 ([2]; genotype 1a H77 RLuc replicon) of the same compound?
A: Its pEC50 is 9.00 to 12.00.

Q: And the pEC50 [3]?
A: The pEC50 was 9.00 to 12.00.

Q: What about the pEC50 [4, 8] of the same compound?
A: The pEC50 was 9.00 to 12.00.

Q: What about the pEC50 [5, 9] of the same compound?
A: Its pEC50 is 9.00 to 12.00.

Q: And the pEC50 [6]?
A: Its pEC50 is 9.00 to 12.00.

Q: And the pEC50 [7]?
A: Its pEC50 is 9.00 to 12.00.
